Test results published in patent US4215215A, “9-Phenyl-nonate traene compounds” (Hoffmann-La Roche Inc., priority 1979, dated 1980).

Assays:
[1] = test system: papillomas; experiment: Papilloma test (tumors induced with dimethylbenzanthracene and croton oil); type: in vivo; conditions: intraperitoneal, within 2 weeks
From the text: The compounds of formula I are effective for utilizing tumors such as papillomas. In the papilloma test, tumors induced with dimethylbenzanthracene and croton oil regress. The diameters of the papillomae decline within 2 weeks on intraperitoneal administration.

[2] = in vivo; conditions: mouse, ip, mice; for LD50 at 24 h: After 1 day; for LD50 at 24 h / LD50 at 240 h / LD50 at 480 h: intraperitoneal, in rape-oil; for LD50 at 240 h: After 10 days; for LD50 at 480 h: After 20 days; for LD50: intraperitoneal administration in rape-oil, no time stated, read-out: acute toxicity [LD50]

Row | SMILES | decline of the diameters of the papillomae ([1]; 25 mg/kg/week) [%] | decline of the diameters of the papillomae ([1]; 50 mg/kg/week) [%] | LD50 at 24 h [2] [mg/kg] | LD50 at 240 h [2] [mg/kg] | LD50 at 480 h [2] [mg/kg] | LD50 [2] [mg/kg] | decline of the diameters of the papillomae ([1]; 100 mg/kg/week) [%]
1 | CCOC(=O)C=C(C)C=CC=C(C)C=Cc1c(C)cc(OC)c(C)c1C [Substance B, 9-(4-methoxy-2,3,6-trimethyl-phenyl)-3,7-dimethyl-nona-2,4,6,8-tetraen-1-oic acid ethyl ester] | 45 | 63 | > 4000 | 1900 | 1000 | 1000 | –
2 | COc1cc(C)c(C=CC(C)=CC=CC(C)=CC(=O)O)c(C)c1C [Substance A, 9-(4-methoxy-2,3,6-trimethyl-phenyl)-3,7-dimethyl-nona-2,4,6,8-tetraen-1-oic acid] | – | 38 | > 4000 | 700 | 700 | 700 | 69
